Experimental data from patent US20240391882A1 (Mirati Therapeutics, Inc., priority 2023, published 2024).
Read-outs that look alike come from different tables or passages of the source.

Assays:
Format in all cases: cell-based
[1] = test system: pAKT in T47D (PI3Kα H1047R mutant) cells; assay: Inhibition of pAKT (alphaLISA Surefire Ultra AKT 1/2/3 pS473) in T47D cells; settings: Homo sapiens, read-out: T47D (H1047R) pAKT 24 hr (IC50)
Summary of the method: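 Cells in HBSS were dosed from 10.4 μm (1:4 serial dilution, 10 concentrations) and incubated about 24 hours at 37° C, then lysed. pAKT S473 measured by alphaLISA after overnight bead incubation. Signal normalised to alpelisib (3.125 μm) and DMSO controls; IC50 from four-parameter fit.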

[2] = test system: T47D (PI3Kα H1047R mutant) cells; assay: Cell viability (CellTiter-Glo 2.0) in T47D cells; settings: Homo sapiens, approximately 72 hours
Summary of the method: (§1)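 SKBR3 or T47D cells, 1000 per well, were seeded overnight and then exposed ~72 h at 37° C to 10 concentrations of compound, 1:4 dilutions from 10 μm. Viability read by CellTiter-Glo luminescence as percent of vehicle; IC50 from four-parameter variable-slope fit.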

[3] = test system: SKBR3 (PI3Kα wild type) cells; assay: Cell viability (CellTiter-Glo 2.0) in SKBR3 cells; settings: Homo sapiens
Summary of the method: as §1

[4] = T47D (PI3Kα H1047R mutant) cells, 24 hr compound incubation, alphaLISA pS473
[5] = SK-BR-3, SKBR3 (PI3Kα wild type) cells, approximately 72 hours, CellTiter-Glo 2.0, read-out: SKBR3 (WT) Viability IC50

Structure (SMILES)	IC50 [1, 4] [nM]	IC50 ([2]; T47D, 72 h) [nM]	IC50 [3, 5] [nM]	IC50 ([1]; T47D, 24 h) [nM]	IC50 [2] [nM]	IC50 ([3]; SK-BR-3, 72 h, read-out: SKBR3 (WT) Viability IC50 (nM)) [nM]
CO[C@H](C)C1CCN(c2nc3c([C@@H](C)Nc4ccc(Cl)nc4C(=O)O)cc(C)cc3nc2C#N)CC1 (single isomer, unassigned) [Example 195A]	0.47	84.1	> 10000			
Cc1cc([C@@H](C)Nc2ccc(Cl)nc2C(=O)O)c2nc(N3CC4C(C3)C4(F)F)c(C#N)nc2c1 (stereo partly drawn) [Example 21, 6-chloro-3-(((1R)-1-(2-cyano-3-(6,6-difluoro-3-azabicyclo[3.1.0]hexan-3-yl)-7-methylquinoxalin-5-yl)ethyl)amino)picolinic acid]	0.5	32.1	> 10000			
C[C@H](Nc1ccccc1C(=O)O)c1cc(Cl)cc2nc(C#N)c(N3CCC(F)(F)CC3)nc12 [Example 29, (S)-2-((1-(7-chloro-2-cyano-3-(4,4-difluoropiperidin-1-yl)quinoxalin-5-yl)ethyl)amino)benzoic acid]	117	3480	> 10000			
Cc1cc([C@@H](C)Nc2ccc(Cl)nc2C(=O)O)c2nc(N3CCC[C@H]([C@@H](C)O)C3)c(C#N)nc2c1 [Example 261B, 6-chloro-3-(((R)-1-(2-cyano-3-((S)-3-((R)-1-hydroxyethyl)piperidin-1-yl)-7-methylquinoxalin-5-yl)ethyl)amino)picolinic acid]	2.6	98	> 10000			
Cc1cc([C@@H](C)Nc2ccccc2C(=O)O)c2nc(N3CCC(C)(C)CC3)c(C#N)nc2c1 [Example 61, (R)-2-((1-(2-cyano-3-(4,4-dimethylpiperidin-1-yl)-7-methylquinoxalin-5-yl)ethyl)amino)benzoic acid]	38.6	513	> 10000			
Cc1cc([C@@H](C)Nc2ccc(Cl)nc2C(=O)O)c2nc(N3CC4CS(=O)(=O)CC4C3)c(C#N)nc2c1 (stereo partly drawn) [Example 228, 6-chloro-3-(((1R)-1-(2-cyano-3-(2,2-dioxidotetrahydro-1H-thieno[3,4-c]pyrrol-5(3H)-yl)-7-methylquinoxalin-5-yl)ethyl)amino)picolinic acid]	33.2	368	> 10000			
Cc1cc([C@@H](C)Nc2ccc(Cl)nc2C(=O)O)c2nc(N3CC4C[C@@]4(C(F)(F)F)C3)c(C#N)nc2c1 (single isomer, unassigned) [Example 43A]	4.8	99	> 10000			
Cc1cc([C@@H](C)Nc2ccccc2C(=O)O)c2nc(N3Cc4ccccc4C3)c(C#N)nc2c1 [Example 6, (R)-2-((1-(2-cyano-3-(isoindolin-2-yl)-7-methylquinoxalin-5-yl)ethyl)amino)benzoic acid]				5	294	> 10000
Cc1cc([C@@H](C)Nc2ccc(Cl)nc2C(=O)O)c2nc(N3CC4(CCOC4)C3)c(C#N)nc2c1 [Example 251, (R)-6-chloro-3-((1-(2-cyano-7-methyl-3-(6-oxa-2-azaspiro[3.4]octan-2-yl)quinoxalin-5-yl)ethyl)amino)picolinic acid]	1.1	11	> 10000			
Cc1cc([C@@H](C)Nc2ccc(Cl)nc2C(=O)O)c2nc(N3CCC(F)(F)[C@H](CO)C3)c(C#N)nc2c1 (single isomer, unassigned) [Example 234B]	3.6	85	> 10000			
Cc1cc([C@@H](C)Nc2ccc(Cl)nc2C(=O)O)c2nc(N3CCC4(CC3)COC4)c(C#N)nc2c1 [Example 249, (R)-6-chloro-3-((1-(2-cyano-7-methyl-3-(2-oxa-7-azaspiro[3.5]nonan-7-yl)quinoxalin-5-yl)ethyl)amino)picolinic acid]	1.7	16	6650			
Cc1cc([C@@H](C)Nc2ccc(Cl)nc2C(=O)O)c2nc(N3C[C@@H](F)C[C@@H]3C)c(C#N)nc2c1 [Example 246D, 6-chloro-3-(((R)-1-(2-cyano-3-((2S,4S)-4-fluoro-2-methylpyrrolidin-1-yl)-7-methylquinoxalin-5-yl)ethyl)amino)picolinic acid]	6.8	158	6220			
Cc1cc([C@@H](C)Nc2ccc(Cl)nc2C(=O)O)c2nc(N3CCc4ccn(C)c(=O)c4C3)c(C#N)nc2c1 [Example 222, (R)-6-chloro-3-((1-(2-cyano-7-methyl-3-(7-methyl-8-oxo-3,4,7,8-tetrahydro-2,7-naphthyridin-2(1H)-yl)quinoxalin-5-yl)ethyl)amino)picolinic acid]	4.2	225	> 10000			
COC1(C)CN(c2nc3c([C@@H](C)Nc4ccc(Cl)nc4C(=O)O)cc(C)cc3nc2C#N)C1 [Example 64, (R)-6-chloro-3-((1-(2-cyano-3-(3-methoxy-3-methylazetidin-1-yl)-7-methylquinoxalin-5-yl)ethyl)amino)picolinic acid]	1.3	44	> 10000			
Cc1cc([C@@H](C)Nc2ccc(Cl)nc2C(=O)O)c2nc(N3C[C@H](F)C[C@H]3C)c(C#N)nc2c1 [Example 246C, 6-chloro-3-(((R)-1-(2-cyano-3-((2R,4R)-4-fluoro-2-methylpyrrolidin-1-yl)-7-methylquinoxalin-5-yl)ethyl)amino)picolinic acid]	0.97	46	3400			
COC[C@H]1CN(c2nc3c([C@@H](C)Nc4ccc(Cl)nc4C(=O)O)cc(C)cc3nc2C#N)CC1(F)F (single isomer, unassigned) [Example 211B]	2.6	2.7	6800			
C[C@@H](Nc1ccccc1C(=O)O)c1cc(F)cc2nc(C#N)c(N3CCC(F)(F)CC3)nc12 [Example 32, (R)-2-((1-(2-cyano-3-(4,4-difluoropiperidin-1-yl)-7-fluoroquinoxalin-5-yl)ethyl)amino)benzoic acid]	10.2	265	> 10000			
Cc1cc([C@@H](C)Nc2cccnc2C(=O)O)c2nc(N3CCOCC3)c(C#N)nc2c1 [Example 203, (R)-3-((1-(2-cyano-7-methyl-3-morpholinoquinoxalin-5-yl)ethyl)amino)picolinic acid]	25.1	559	2220			
Cc1cc([C@@H](C)Nc2ccc(Cl)nc2C(=O)O)c2nc(C3CCOCC3)c(C#N)nc2c1 [Example 233, (R)-6-chloro-3-((1-(2-cyano-7-methyl-3-(tetrahydro-2H-pyran-4-yl)quinoxalin-5-yl)ethyl)amino)picolinic acid]	0.17	84.4	> 10000			
C[C@H](Nc1ccccc1C(=O)O)c1cc(C#N)cc2nc(C#N)c(N3CCC(F)(F)CC3)nc12 [Example 27, (S)-2-((1-(2,7-dicyano-3-(4,4-difluoropiperidin-1-yl)quinoxalin-5-yl)ethyl)amino)benzoic acid]	1140	> 10000	> 10000			
Cc1cc([C@@H](C)Nc2ccc(Cl)nc2C(=O)O)c2nc(N3CC4C(F)C4C3)c(C#N)nc2c1 (stereo partly drawn) [Example 215, 6-chloro-3-(((1R)-1-(2-cyano-3-(6-fluoro-3-azabicyclo[3.1.0]hexan-3-yl)-7-methylquinoxalin-5-yl)ethyl)amino)picolinic acid]	1.6	28	> 10000			
Cc1cc([C@@H](C)Nc2ccc(Cl)nc2C(=O)O)c2nc(N3CCC(C)(C)CC3)c(C#N)nc2c1 [Example 62, (R)-6-chloro-3-((1-(2-cyano-3-(4,4-dimethylpiperidin-1-yl)-7-methylquinoxalin-5-yl)ethyl)amino)picolinic acid]	7.9	220	7080			
Cc1cc([C@@H](C)Nc2ccc(Cl)nc2C(=O)O)c2nc(N3C[C@@H](C)OC[C@H]3C)c(C#N)nc2c1 [Example 237A, 6-chloro-3-(((R)-1-(2-cyano-3-((2R,5R)-2,5-dimethylmorpholino)-7-methylquinoxalin-5-yl)ethyl)amino)picolinic acid]	4.3	137	8170			
Cc1cc([C@@H](C)Nc2ccc(Cl)nc2C(=O)O)c2nc(N3C[C@@H]4CO[C@@H](C4)C3)c(C#N)nc2c1 (single isomer, unassigned) [Example 243A]	0.34	62	2860			
C[C@@H](Nc1ccccc1C(=O)O)c1cc(C#N)cc2nc(C#N)c(N3CCC(F)(F)CC3)nc12 [Example 28, (R)-2-((1-(2,7-dicyano-3-(4,4-difluoropiperidin-1-yl)quinoxalin-5-yl)ethyl)amino)benzoic acid]	48.3	2140	> 10000			
Cc1cc([C@@H](C)Nc2ccc(Cl)nc2C(=O)O)c2nc(N3CC(C)(C)C3)c(C#N)nc2c1 [Example 56, (R)-6-chloro-3-((1-(2-cyano-3-(3,3-dimethylazetidin-1-yl)-7-methylquinoxalin-5-yl)ethyl)amino)picolinic acid]	4.7	128	> 10000			
Cc1cc([C@@H](C)Nc2ccc(Cl)nc2C(=O)O)c2nc(NCC3CC3)c(C#N)nc2c1 [Example 25, (R)-6-chloro-3-((1-(2-cyano-3-((cyclopropylmethyl)amino)-7-methylquinoxalin-5-yl)ethyl)amino)picolinic acid]	1.2	175	> 10000			
